Experimental data published in ChEMBL document CHEMBL1140123, “Whole structure-activity relationships of the fat-accumulation inhibitor (-)-ternatin: recognition of the importance of each amino acid residue” (J Med Chem, 2008).

Columns and labels:
3T3-L1 [1] = assay: Inhibition of fat accumulation in mouse 3T3L1 cells assessed as liberated triglyceride after 7 days; type: functional, cell-based; settings: 3T3-L1, 168 h
[2] = Toxicity in mouse 3T3L1 cells; type: cell-based; settings: 3T3-L1 cells
3T3-L1 [3] = assay: Inhibition of fat accumulation in mouse 3T3L1 cells assessed as liberated triglyceride after 7 days relative to (-)-ternatin; type: functional

SMILES | IC50 (3T3-L1 [1]) [µM] | IC50 [2] [µM] | Activity (3T3-L1 [3])
CCCCCC[C@H]1NC(=O)[C@@H]([C@H](O)C(C)C)NC(=O)[C@@H](C)N(C)C(=O)[C@H](C)N(C)C(=O)[C@H](CC(C)C)NC(=O)[C@H](CC(C)C)N(C)C(=O)[C@H](C)N(C)C1=O | 46 | > 130 | 
CC[C@H](C)[C@H]1NC(=O)[C@@H]([C@H](O)C(C)C)NC(=O)[C@@H](C)N(C)C(=O)[C@H](C)N(C)C(=O)[C@H](CC(C)C)NC(=O)[C@H](C)N(C)C(=O)[C@H](C)N(C)C1=O | 1.6 | > 29 | 
CC[C@H](C)[C@H]1NC(=O)[C@@H](COCc2ccccc2)NC(=O)[C@H](C)N(C)C(=O)[C@H](C)N(C)C(=O)[C@H](CC(C)C)NC(=O)[C@H](CC(C)C)N(C)C(=O)[C@H](C)N(C)C1=O | 5.9 | 89 | 
CCCCCC[C@@H]1NC(=O)[C@H](CC(C)C)N(C)C(=O)[C@H](C)N(C)C(=O)[C@@H]([C@@H](C)CC)NC(=O)[C@@H]([C@H](O)C(C)C)NC(=O)[C@@H](C)N(C)C(=O)[C@H](C)N(C)C1=O | > 130 | > 130 | 0.002
CC(C)C[C@@H]1NC(=O)[C@H](CC(C)C)N(C)C(=O)[C@H](C)N(C)C(=O)[C@@H](C)NC(=O)[C@@H]([C@H](O)C(C)C)NC(=O)[C@@H](C)N(C)C(=O)[C@H](C)N(C)C1=O | > 130 | > 130 | 0.002
CCCCCC[C@@H]1C(=O)N[C@H]([C@H](O)C(C)C)C(=O)N[C@H]([C@@H](C)CC)C(=O)N(C)[C@@H](C)C(=O)N(C)[C@@H](CC(C)C)C(=O)N[C@@H](CC(C)C)C(=O)N(C)[C@@H](C)C(=O)N1C | 0.016 | 0.066 | 
CCCCCC[C@H]1C(=O)N(C)[C@@H](CC(C)C)C(=O)N[C@@H](CC(C)C)C(=O)N(C)[C@@H](C)C(=O)N(C)[C@H](C)C(=O)N[C@H]([C@H](O)C(C)C)C(=O)N[C@H]([C@@H](C)CC)C(=O)N1C | 1.1 | > 12 | 
CC[C@H](C)[C@H]1NC(=O)[C@@H](C)NC(=O)[C@@H](C)N(C)C(=O)[C@H](C)N(C)C(=O)[C@H](CC(C)C)NC(=O)[C@H](CC(C)C)N(C)C(=O)[C@H](C)N(C)C1=O | 14 | > 130 | 
CCCCCC[C@H]1C(=O)N(C)[C@H](C)C(=O)N[C@H]([C@H](O)C(C)C)C(=O)N[C@H]([C@@H](C)CC)C(=O)N(C)[C@@H](C)C(=O)N(C)[C@@H](CC(C)C)C(=O)N[C@@H](CC(C)C)C(=O)N1C | 0.12 | 0.96 | 
CC[C@H](C)[C@H]1NC(=O)[C@@H]([C@H](O)C(C)C)NC(=O)[C@@H](C)N(C)C(=O)[C@H](C)N(C)C(=O)[C@H](C)NC(=O)[C@H](CC(C)C)N(C)C(=O)[C@H](C)N(C)C1=O | > 130 | > 130 | 0.002
CCCCCC[C@H]1C(=O)N[C@@H](CC(C)C)C(=O)N(C)[C@@H](C)C(=O)N(C)[C@H](C)C(=O)N[C@H]([C@H](O)C(C)C)C(=O)N[C@H]([C@@H](C)CC)C(=O)N(C)[C@@H](C)C(=O)N1C | 0.38 | 2.1 | 
